Experimental data as given in ChEMBL document CHEMBL5331046, “Disulfiram and dithiocarbamate analogues demonstrate promising antischistosomal effects” (Eur J Med Chem, 2022).
Activity calls are given as the source filed them. The rule behind the calls is not given here.

Experiments:
Schistosoma mansoni [1] = test: Antischistosomal activity against Schistosoma mansoni couples at 25 uM measured upto 72 hrs by bright field microscopy; format: functional, organism-based
Schistosoma mansoni [2] = test: Antischistosomal activity against Schistosoma mansoni couples at 10 uM measured upto 72 hrs by bright field microscopy; format: functional, organism-based
Schistosoma mansoni [3] = test: Antischistosomal activity against Schistosoma mansoni couples at 100 uM measured upto 72 hrs by bright field microscopy; format: functional, organism-based
Schistosoma mansoni [4] = test: Antischistosomal activity against Schistosoma mansoni couples assessed as reduction in pairing stability at 100 uM measured upto 72 hrs by bright field microscopy; format: functional
Schistosoma mansoni [5] = test: Antischistosomal activity against Schistosoma mansoni couples assessed as eggs deformation at 100 uM measured upto 72 hrs by bright field microscopy; format: functional
Schistosoma mansoni [6] = test: Antischistosomal activity against Schistosoma mansoni couples assessed as decrease in parasite motility at 15 uM measured upto 72 hrs by bright field microscopy; format: functional
Schistosoma mansoni [7] = test: Antischistosomal activity against Schistosoma mansoni couples at >=50 uM measured upto 72 hrs by bright field microscopy; format: functional, organism-based
HepG2 [8] = test: Cytotoxicity against human HepG2 cells assessed as reduction in cell vaibility at 100 uM by WST-1 assay; format: toxicity, cell-based; conditions: hepg2, 100 µM
Schistosoma mansoni [9] = test: Antischistosomal activity against Schistosoma mansoni couples assessed as decrease in parasite motility at 50 uM measured upto 72 hrs by bright field microscopy; format: functional; design: scale not given: the % may be the effect or the level left
Schistosoma mansoni [10] = test: Antischistosomal activity against Schistosoma mansoni couples assessed as decrease in parasite motility at 100 uM measured upto 72 hrs by bright field microscopy; format: functional; design: scale not given: the % may be the effect or the level left
Schistosoma mansoni [11] = test: Antischistosomal activity against Schistosoma mansoni couples assessed as gut dilations at 50 uM measured upto 72 hrs by bright field microscopy; format: functional, organism-based
Schistosoma mansoni [12] = test: Antischistosomal activity against Schistosoma mansoni couples assessed as gut dilations at 100 uM measured upto 72 hrs by bright field microscopy; format: functional, organism-based
Schistosoma mansoni [13] = test: Antischistosomal activity against Schistosoma mansoni couples assessed as detachment of worms from culture dish at 100 uM measured upto 72 hrs by bright field microscopy; format: functional, organism-based
LS174T [14] = test: Cytotoxicity against human LS174T cells assessed as reduction in cell viability at 100 uM by WST-1 assay; format: toxicity, cell-based
Schistosoma mansoni [15] = test: Antischistosomal activity against Schistosoma mansoni couples assessed as tegument damage at 100 uM measured upto 72 hrs by bright field microscopy; format: functional, organism-based
LS174T [16] = test: Cytotoxicity against human LS174T cells assessed as reduction in cell vaibility at 50 uM by WST-1 assay; format: toxicity, cell-based
HepG2 [17] = test: Cytotoxicity against human HepG2 cells assessed as reduction in cell vaibility at 50 uM by WST-1 assay; format: toxicity, cell-based; conditions: hepg2, 50 µM
HepG2 [18] = test: Cytotoxicity against human HepG2 cells assessed as reduction in cell viability upto 100 uM by WST-1 assay; format: toxicity, cell-based; conditions: hepg2, 100 µM
Schistosoma mansoni [19] = test: Antischistosomal activity against Schistosoma mansoni couples assessed as pairing instability at 50 uM measured upto 72 hrs by bright field microscopy; format: functional
Schistosoma mansoni [20] = test: Antischistosomal activity against Schistosoma mansoni couples assessed as tegument damage upto 100 uM measured upto 72 hrs by bright field microscopy; format: functional, organism-based
LS174T [21] = test: Cytotoxicity against human LS174T cells assessed as reduction in cell vaibility upto 100 uM by WST-1 assay; format: toxicity, cell-based
Schistosoma mansoni [22] = test: Antischistosomal activity against Schistosoma mansoni couples assessed as inhibition of eggs production at 100 uM measured upto 72 hrs by bright field microscopy; format: functional; design: scale not given: the % may be the effect or the level left
Schistosoma mansoni [23] = test: Antischistosomal activity against Schistosoma mansoni couples assessed as decrease in parasite motility at 25 uM measured upto 72 hrs by bright field microscopy; format: functional; design: scale not given: the % may be the effect or the level left
Schistosoma mansoni [24] = test: Antischistosomal activity against Schistosoma mansoni couples assessed as induction of weak phenotypes at 25 uM measured upto 72 hrs by bright field microscopy; format: functional, organism-based
Schistosoma mansoni [25] = test: Antischistosomal activity against Schistosoma mansoni couples assessed as decrease in pairing stability at 15 uM measured upto 72 hrs by bright field microscopy; format: functional; design: scale not given: the % may be the effect or the level left
Schistosoma mansoni [26] = test: Antischistosomal activity against Schistosoma mansoni couples assessed as inhibition of eggs production at 15 uM measured upto 72 hrs by bright field microscopy; format: functional; design: scale not given: the % may be the effect or the level left
Schistosoma mansoni [27] = test: Antischistosomal activity against Schistosoma mansoni couples assessed as induction of phenotypes at 10 uM measured upto 72 hrs by bright field microscopy; format: functional, organism-based
Schistosoma mansoni [28] = test: Antischistosomal activity against Schistosoma mansoni couples assessed as decrease in parasite vitality at 15 uM measured upto 72 hrs by bright field microscopy; format: functional; design: scale not given: the % may be the effect or the level left
Schistosoma mansoni [29] = test: Antischistosomal activity against Schistosoma mansoni couples assessed as decrease in parasite motility at 10 uM measured upto 72 hrs by bright field microscopy; format: functional, organism-based
Schistosoma mansoni [30] = test: Antischistosomal activity against Schistosoma mansoni couples assessed as reduction in pairing stability at 10 uM measured upto 72 hrs by bright field microscopy; format: functional, organism-based
HepG2 [31] = test: Cytotoxicity against human HepG2 cells assessed as reduction in cell vaibility at 25 uM by WST-1 assay; format: toxicity, cell-based; conditions: hepg2, 25 µM
Schistosoma mansoni [32] = test: Antischistosomal activity against Schistosoma mansoni couples assessed as decrease in parasite vitality at 10 uM measured upto 72 hrs by bright field microscopy; format: functional
LS174T [33] = test: Cytotoxicity against human LS174T cells assessed as reduction in cell vaibility at 25 uM by WST-1 assay; format: toxicity, cell-based
Schistosoma mansoni [34] = test: Antischistosomal activity against Schistosoma mansoni couples assessed as inhibition of eggs production at 10 uM measured upto 72 hrs by bright field microscopy; format: functional, organism-based
Schistosoma mansoni [35] = test: Antischistosomal activity against Schistosoma mansoni couples assessed as inhibition of eggs production at 50 uM measured upto 72 hrs by bright field microscopy; format: functional, organism-based
Schistosoma mansoni [36] = test: Antischistosomal activity against Schistosoma mansoni couples assessed as reduction in pairing stability at 50 uM measured upto 72 hrs by bright field microscopy; format: functional, organism-based

## CC(C)NC(=O)CN1CCN(C(=S)SCc2ccc([N+](=O)[O-])cc2)CC1
Schistosoma mansoni [1]
  Activity: Active
Schistosoma mansoni [2]
  Activity: inactive
Schistosoma mansoni [3]
  Activity: Active

## CCN(CC)C(=S)SCCN1CCOCC1
Schistosoma mansoni [4]
  Activity: inactive
Schistosoma mansoni [5]
  Activity: Active

## CCN(CC)C(=S)SCC(=O)O
Schistosoma mansoni [4]
  Activity: Active

## S=C(SCc1ccccc1)n1cnnc1
Schistosoma mansoni [3]
  Activity: inactive

## CCCCCCN(CCCCCC)C(=S)SCc1ccccc1
Schistosoma mansoni [3]
  Activity: inactive

## O=[N+]([O-])c1ccc(CSC(=S)N2CCN(S(=O)(=O)c3cccc4ccccc34)CC2)cc1
Schistosoma mansoni [6]
  Activity: inactive

## CN(C)C(=S)SCc1ccccc1
Schistosoma mansoni [4]
  Activity: Active
Schistosoma mansoni [5]
  Activity: Active

## CCN1CCN(C(=S)SCc2ccccc2)CC1
Schistosoma mansoni [7]
  Activity: Active

## S=C(SCc1ccccc1)N1CCSCC1
HepG2 [8]
  Activity: Non-Toxic
Schistosoma mansoni [9]
  Activity: ~45%
Schistosoma mansoni [10]
  Activity: 45%
Schistosoma mansoni [11]
  Activity: Active
Schistosoma mansoni [12]
  Activity: Active
Schistosoma mansoni [13]
  Activity: Active
LS174T [14]
  Activity: Non-Toxic

## Cl.S=C(SCc1ccccc1)N1CCNCC1
Schistosoma mansoni [15]
  Activity: Active
Schistosoma mansoni [9]
  Activity: ~35%
Schistosoma mansoni [10]
  Activity: >=55%
LS174T [16]
  Activity: Toxic
Schistosoma mansoni [12]
  Activity: Active
HepG2 [17]
  Activity: Toxic

## S=C(SCc1ccccc1)N1CCN(/C=C/c2ccccc2)CC1
Schistosoma mansoni [3]
  Activity: inactive

## CCN(CC)/C(=N/C#N)NCc1ccccc1
Schistosoma mansoni [3]
  Activity: inactive

## CCN(CC)C(=S)SC(c1ccccc1)c1ccccc1
Schistosoma mansoni [4]
  Activity: Active

## CCN(CC)C(=S)S/C=C/c1ccccc1
Schistosoma mansoni [15]
  Activity: Active

## CCN(CC)C(=S)NCc1ccccc1
Schistosoma mansoni [3]
  Activity: inactive

## CCN(CC)C(=O)OCc1ccccc1
Schistosoma mansoni [5]
  Activity: ~100%

## CCN(CC)C(=S)SCCC1SCCS1
HepG2 [18]
  Activity: Non-Toxic
Schistosoma mansoni [19]
  Activity: >90%
Schistosoma mansoni [10]
  Activity: >60%
Schistosoma mansoni [20]
  Activity: Active
LS174T [21]
  Activity: Non-Toxic

## CCN(CC)C(=S)SCc1ccc(C(=O)O)cc1
Schistosoma mansoni [3]
  Activity: inactive

## CCN(CC)C(=S)SCc1ccccc1
Schistosoma mansoni [10]
  Activity: 50%
Schistosoma mansoni [4]
  Activity: 100%
Schistosoma mansoni [22]
  Activity: 100%
Schistosoma mansoni [23]
  Activity: 30%
LS174T [16]
  Activity: Toxic
HepG2 [17]
  Activity: Toxic

## Cl.N[C@@H](Cc1ccc(O)cc1)C(=O)N1CCN(C(=S)SCc2ccc([N+](=O)[O-])cc2)CC1
Schistosoma mansoni [23]
  Activity: 30%
Schistosoma mansoni [24]
  Activity: Active

## CCCN1CCN(C(=S)SCc2ccccc2)CC1
Schistosoma mansoni [7]
  Activity: Active

## CCN(CC)C(=S)CCc1ccccc1
Schistosoma mansoni [3]
  Activity: inactive

## O=[N+]([O-])c1ccc(CSC(=S)N2CCN(CCO)CC2)cc1
Schistosoma mansoni [1]
  Activity: Active
Schistosoma mansoni [2]
  Activity: inactive
Schistosoma mansoni [3]
  Activity: Active

## CCCCS(=O)(=O)N1CCN(C(=S)SCc2ccc([N+](=O)[O-])cc2)CC1
Schistosoma mansoni [25]
  Activity: 20%
Schistosoma mansoni [26]
  Activity: 40%
Schistosoma mansoni [27]
  Activity: Active
Schistosoma mansoni [28]
  Activity: 90%
Schistosoma mansoni [29]
  Activity: Active
Schistosoma mansoni [6]
  Activity: 50%

## S=C(SCc1ccccc1)N1CCCCC1
Schistosoma mansoni [4]
  Activity: Active
Schistosoma mansoni [22]
  Activity: Active

## CSCC[C@H](N)C(=O)N1CCN(C(=S)SCc2ccc([N+](=O)[O-])cc2)CC1.Cl
Schistosoma mansoni [30]
  Activity: Active
HepG2 [31]
  Activity: Toxic
Schistosoma mansoni [32]
  Activity: Active
LS174T [33]
  Activity: Toxic
Schistosoma mansoni [23]
  Activity: 60%
Schistosoma mansoni [24]
  Activity: Active
Schistosoma mansoni [29]
  Activity: inactive
Schistosoma mansoni [34]
  Activity: Active

## CCN(CC)C(=S)Sc1ccccc1
Schistosoma mansoni [4]
  Activity: inactive
Schistosoma mansoni [22]
  Activity: Active

## CCN(CC)C(=S)OCc1ccccc1
Schistosoma mansoni [4]
  Activity: 50%
Schistosoma mansoni [22]
  Activity: 100%

## CCN(CC)C(=S)SCc1ccc2ccccc2c1
HepG2 [8]
  Activity: Non-Toxic
Schistosoma mansoni [9]
  Activity: >50%
Schistosoma mansoni [35]
  Activity: Active
LS174T [14]
  Activity: Non-Toxic
Schistosoma mansoni [36]
  Activity: Active

## CCN(CC)C(=O)SCc1ccccc1
Schistosoma mansoni [22]
  Activity: ~90%

## S=C(SCc1ccccc1)N1CCc2ccccc2C1
Schistosoma mansoni [3]
  Activity: inactive
